Measured values reported in patent US7659251B2, “Ligand for G-protein coupled receptor FPRL2” (priority 2004, dated 2010).

Assays:
FPRL2 [1] = target: T1, FPRL2 (Homo sapiens, UniProt P25089); test: Saturation and competition binding on FPRL2-expressing CHO-K1 cells, tracer F2L-[125I]Tyr; parameters: expressed in transfected cells; host or cells: CHO-K1; settings: for competition for FPRL2 binding: up to concentrations of 3 μM, data not shown
T1 sequence (P25089 1-353): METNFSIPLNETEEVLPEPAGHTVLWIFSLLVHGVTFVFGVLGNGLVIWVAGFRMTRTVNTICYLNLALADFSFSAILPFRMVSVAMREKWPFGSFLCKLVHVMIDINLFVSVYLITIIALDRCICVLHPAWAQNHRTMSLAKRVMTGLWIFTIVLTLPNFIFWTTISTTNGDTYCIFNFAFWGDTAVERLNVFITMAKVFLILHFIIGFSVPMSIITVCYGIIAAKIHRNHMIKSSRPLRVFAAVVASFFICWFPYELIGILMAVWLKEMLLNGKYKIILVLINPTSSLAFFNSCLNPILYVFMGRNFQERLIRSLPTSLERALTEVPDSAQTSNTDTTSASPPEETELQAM
Experimental: FPRL2, FPRL1 and FPR-expressing CHO-K1 cells were plated in 24 wells plates (200,000 cells per well for FPRL2, and 100,000 cells per well for the two other receptors). The next day, the cells were washed twice with a KRH buffer containing 280 mM saccharose and, for FPRL1 and FPR, 0.1 % NaN3. […] Cells were washed twice with ice cold buffer, total radioactivity was recovered with 1 M […] and counted in a gamma counter for […]

FPRL2 [2] = target: T1, FPRL2; test: Aequorin-based assay on CHO-K1 cells expressing FPRL2, apoaequorin and Galpha16; type: cell-based; parameters: expressed in transfected cells; host or cells: CHO-K1 (with or without Galpha16 and apoaequorin); settings: for concentrations required to activate FPRL2 (calcium): FPRL2-expressing CHO-K1 cells
Experimental: Briefly, FPRL2 polypeptide-expressing clones are transfected to coexpress mitochondrial apoaequorin and Gα16. Cells are incubated with 5 μM Coelenterazine H (Molecular Probes) for 4 hours at room temperature, washed in DMEM-F12 culture medium and resuspended at a concentration of 0.5×10^6 cells/ml. Cells are then mixed with test agonist molecules and light emission by the aequorin is recorded with a luminometer for 30 sec. Results are expressed as Relative Light Units (RLU). Controls include assays using membranes isolated from cells not expressing FPRL2 polypeptide (mock transfected), in order to exclude possible non-specific effects of the candidate compound.
FPRL2 expressing clones have been obtained by transfection of CHO-K1 cells to coexpressing mitochondrial apoaequorin and Galpha16, limiting dilution and selection by northern blotting. Positive clones were used for screening with porcine spleen extracts prepared as described above. […] Briefly, cells were collected from plates in PBS containing 5 mM EDTA, pelleted and resuspended at 5×10^6 cells/ml in DMEM-F12 medium. Cells were incubated with 5 μM Coelenterazine H (Molecular Probes) for 4 hours at room temperature. Cells were then washed in DMEM-F12 medium and resuspended at a concentration of 0.5×10^6 cells/ml. Cells were then mixed with test agonist peptides or plates containing tissue extracts and the light emission was recorded for 30 sec using a Microlumat luminometer (Perlin Elmer). Results are expressed as Relative Light Units (RLU).
(§1) The human coding sequences (accession numbers AC005946, M84562 and M60626, respectively) were amplified by PCR from human genomic DNA, cloned into the pcDNA3 (Invitrogen) and pEFIN3 (Euroscreen) vectors and sequenced. The pEFIN3 constructs were transfected, using Fugene 6, into CHO-K1 cells, expressing or not Gα16 and apoaequorin. G418-resistant clones were characterized for receptor expression by Northern blotting. […] Results were expressed as relative light units (RLU) or as the percentage of the response to 20 μM ATP.
The cAMP concentrations were determined using a homogeneous time-resolved fluorescence (HTRF) kit (Cis Bio International). Briefly, cells were detached, resuspended in Krebs Ringer Hepes buffer containing 1 mM 3-Isobutyl-1-methylxanthine, and submitted to 10 μM forskolin, alone or together with increasing concentrations of agonists for 30 min at room temperature. The reaction was stopped by the successive addition of cAMP-XL665 and anti-cAMP cryptate diluted in lysis buffer. The plates were incubated for 60 min at room temperature and read on a Rubystar fluorimeter (BMG). […] A calibration curve was obtained by plotting delta F % versus cAMP concentrations. […] The aequorin-based assay was performed with or without overnight pretreatment with 100 ng/ml Pertussis toxin. […] For FPRL2 polymorphism analysis, HEK cells were transiently transfected with empty and wild-type or Asp338H is FPRL2-containing pcdna vector using calcium phosphate method. Cells were recovered 48 hours later and used for FACS or cAMP experiments.

FPRL1 [3] = target: T2, FPRL1 (Homo sapiens, UniProt P25090); test: Aequorin-based assay on CHO-K1 cells expressing FPRL1; type: cell-based; settings: FPRL1 expressed in CHO-K1 cells
T2 construct: expressed in transfected cells; host or cells: CHO-K1 (with or without Galpha16 and apoaequorin)
T2 sequence (P25090 1-351): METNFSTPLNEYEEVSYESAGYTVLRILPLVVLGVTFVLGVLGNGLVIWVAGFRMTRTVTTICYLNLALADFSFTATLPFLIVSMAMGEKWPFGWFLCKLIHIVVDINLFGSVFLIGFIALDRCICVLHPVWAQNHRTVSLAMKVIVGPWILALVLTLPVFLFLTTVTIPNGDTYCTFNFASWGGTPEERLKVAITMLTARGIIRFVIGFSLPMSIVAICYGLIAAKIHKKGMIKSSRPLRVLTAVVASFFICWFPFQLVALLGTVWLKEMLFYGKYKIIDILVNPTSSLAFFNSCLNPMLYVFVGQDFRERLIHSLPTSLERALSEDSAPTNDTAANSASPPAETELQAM
Source text: as §1

FPR = target: T3, FPR (Homo sapiens, UniProt P21462, E346A/V101L); test: Aequorin-based assay on CHO-K1 cells expressing FPR; type: cell-based; settings: FPR expressed in CHO-K1 cells
T3 construct: expressed in transfected cells; host or cells: CHO-K1 (with or without Galpha16 and apoaequorin)
T3 sequence (P21462 1-350 V101L/E346A): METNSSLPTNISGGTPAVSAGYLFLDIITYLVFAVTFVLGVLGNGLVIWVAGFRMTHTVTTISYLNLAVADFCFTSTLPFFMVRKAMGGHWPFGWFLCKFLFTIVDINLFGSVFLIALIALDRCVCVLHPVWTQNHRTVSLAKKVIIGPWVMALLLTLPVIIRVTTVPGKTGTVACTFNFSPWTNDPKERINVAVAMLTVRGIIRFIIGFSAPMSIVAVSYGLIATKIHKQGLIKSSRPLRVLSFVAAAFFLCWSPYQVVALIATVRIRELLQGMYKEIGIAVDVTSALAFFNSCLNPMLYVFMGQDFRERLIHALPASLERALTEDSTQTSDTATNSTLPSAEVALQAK
Source text: as §1

FPRL1 [4] = target: T2, FPRL1; test: Aequorine assay on human FPRL1 expressing cells (Example 9); type: cell-based; settings: data not shown
Experimental: (§2) Functional responses were analyzed by recording the luminescence of aequorine in human FPRL2 and FPRL1 expressing cells following the addition of agonists or purified monoclonal antibodies.
(§3) In brief, cells were collected from plates with PBS containing 5 mM EDTA, pelleted, resuspend at 5×10^6 cells/ml in DMEM/F-12 medium containing 0.1% bovine serum albumin, incubated with 5 μM coelenterazine H (molecular probes, Inc. Eugene, Oreg.) for 4 h at room temperature and diluted in DMEM/F-12 medium at a concentration of 5×10^5 cells/ml. Cells where then mixed in an 96 wells plate with the ligands or purified monoclonal antibodies. The light emission was recorded over 60 sec using a microlumat Luminometer (EG&G Berthold, microplate luminometer LB 96V).
(§4) Each data point is in duplicate. […] Human FPRL1 expressing cells were used as negative control to Mab. Functionality of these cells has been control with Humanin.

FPRL2 [5] = target: T1, FPRL2; test: Aequorine assay on human FPRL2 expressing cells (Example 9); type: cell-based; parameters: expressed in transfected cells; host or cells: CHO-K1 (with or without Galpha16 and apoaequorin); settings: peptides 2.5 μM to 0.4 nM, Mab 500 ug/ml to 5 ug/ml; FIG. 15
Experimental: as §2, §3, §4

Row | Compound | concentrations active on FPRL1 (FPRL1 [3]) | concentrations active on FPR (FPR) | competition for FPRL2 binding (FPRL2 [1]) | concentrations required to activate FPRL2 (calcium) (FPRL2 [2]) | further results
1 | NSLFGSVETWPWQVL [F2L[7-21], truncated F2L variant lacking the first six aminoacids] | – | – | – | – | activity in binding assay (FPRL2 [1]; not shown): totally inactive; activity in aequorin assay (FPRL2 [2]; FIG. 11H): totally inactive
2 | Pertussis toxin | – | – | – | – | effect of pretreatment on F2L calcium signaling (FPRL2 [2]; 100 ng/ml overnight pretreatment, FIG. 11G): totally inhibited
3 | CSCC[C@H](NC(=O)[C@@H](NC(=O)[C@H](CCSC)NC(=O)[C@H](Cc1ccc(O)cc1)NC(=O)[C@H](CCCCN)NC(=O)[C@@H](N)Cc1c[nH]c2ccccc12)C(C)C)C(N)=O [WKYMVM] | low nanomolar concentrations | low nanomolar concentrations | did not compete | micromolar concentrations | –
4 | CSCC[C@H](NC(=O)[C@H](Cc1ccc(O)cc1)NC(=O)[C@H](CCCCN)NC(=O)[C@@H](N)Cc1c[nH]c2ccccc12)C(=O)N[C@H](C(=O)N[C@H](CCSC)C(N)=O)C(C)C [WKYMVm] | low nanomolar concentrations | low nanomolar concentrations | did not compete | micromolar concentrations | –
5 | Humanin: Humanin (HN(N)) peptide (Phoenix Pharmaceuticals), disclosed as a ligand for FPRL2 and FPRL1 [reference compound] | – | – | – | – | activation of human FPRL1 expressing cells (FPRL1 [4]): activates; activation of human FPRL2 expressing cells (FPRL2 [5]): activates
6 | CSCC[C@H](NC=O)C(=O)N[C@@H](CC(C)C)C(=O)N[C@@H](Cc1ccccc1)C(=O)O [FMLP, formyl-methionine-leucyl-phenylalanine] | – | – | did not compete | – | activity on FPRL2 (FPRL2 [2]; FPRL2-expressing cells): inactive
